According to patent US6818407B2, “Anti-endotoxic antimicrobial cationic peptides and methods of use therfor” (priority 1998, dated 2004):

How the values were obtained:
S. aureus K147 = test: MIC, broth microdilution assay in polypropylene microtiter trays; assay type: cell-based; conditions: average of three separate experiments
Procedure: (§1) The biological activity of the peptides can be determined by standard methods known to those of skill in the art, such as Aminimal inhibitory concentration (MIC)≅ assay described in the present examples, whereby the lowest concentration at which no change in OD is observed for a given period of time is recorded as MIC. Alternatively, Afractional inhibitory concentration (FIC)≅ is also useful for determination of synergy between the peptides of the invention, or the peptides in combination with known antibiotics. FICs are performed by checkerboard titrations of peptides in one dimension of a microtiter plate, and of antibiotics in the other dimension, for example. The FIC is calculated by looking at the impact of one antibiotic on the MIC of the other and vice versa. […] Preferably, an FIC of less than 0.5 is obtained for synergism. As used herein, FIC can be determined as follows: [formula]
(§2) A method which employed polypropylene microtiter trays in a broth microdilution assay was developed.

E. coli [1] = test: as above; assay type: cell-based; conditions: average of three separate experiments
Procedure: as §1, §2

S. epidermis = test: as above; assay type: cell-based; conditions: average of three separate experiments
Procedure: as §1, §2

P. aeruginosa = test: as above; assay type: cell-based; conditions: average of three separate experiments
Procedure: as §1, §2

S. aureus = test: as above; assay type: cell-based; conditions: average of three separate experiments
Procedure: as §1, §2

[2] = tested on: mutant (Nal B, H744) of P. aeruginosa; test: microbe, parasite or virus in culture; assay type: cell-based
Procedure: as §1
(§3) To test whether the peptides of the invention synergize with various antibiotics, the following method was employed. Fractional Inhibitory Concentration (FIC) was used to determine synergy of peptides combined with antibiotics (e.g., carbenicillin/ciprofloxacin) against Pseudomonas aeruginosa. The following methodology was followed:
(§4) (1) Determination of MIC of cationic peptides (MIC A):
(§5) 100 μl Mueller Hinton broth (MHB) was added per well
(§6) 12.5 μl of 10× test concentration peptide was added per well to get final peptide concentration of e.g., 128, 64, 32, . . . 0.025 μg/ml from row 1 to 11;
(§7) 10 μl of 10^−4 dilution of overnight bacterial culture was added per well.
(§8) (2) Determination of MIC of Carbenicillin/Ciprofloxacin (MIC B):
(§9) 100 μl MHB was added per well;
(§10) 100 μl of 2× test concentration of antibiotic was added in the first well of the row, and doubling dilutions performed across the plate from column 1 to 11;
(§11) (3) Determination of MIC of antibiotics (B) when combined with peptides at concentration A:
(§12) 100 μl Carbenicillin (512 μg/ml) or Ciprofloxacin (8 μg/ml) was added in each well of column 1; doubling dilutions were performed across the plate;
(§13) 100 μl of the peptide was added in all wells of row 1, mixed, and 100 μl withdrawn and added to row 2, etc., creating a checkerboard titration.
(§14) 10 μl of 10^−4 dilution of overnight culture was added per well;
(§15) plates were incubated at 37EC for 18-24 hours. Combination MIC values A and B were taken as the lowest concentration of drug that reduced bacterial growth by more than 50% in any given column.
(§16) (4) FIC index=FICA+FICB=(A)/MIC A+(B)/MIC B. An FIC index of approximately 0.5 or less indicates synergy; 1.0 reflects additivity; and >1.0 indicates antagonism.

[3] = tested on: β-lactamase derepressed mutant (H547) of P. aeruginosa; test: microbe, parasite or virus in culture; assay type: cell-based; conditions: P. aeruginosa H547
Procedure: as §1, §3, §4, §5, §6, §7, §8, §9, §10, §11, §12, §13, §14, §15, §16

Salmonella typhi = test: Synergy study (checkerboard titration) with hen white lysozyme; assay type: cell-based
Procedure: as §1

E. coli [4] = test: as above; assay type: cell-based
Procedure: as §1

P. aeruginosa (H103) = test: as above; assay type: cell-based
Procedure: as §1

[5] = Lethal endotoxemia in galactosamine-sensitized mice; assay type: in vivo, CD-1 mice; conditions: peptide 200 μg intraperitoneal within 10 min of 10 μg LPS; 24 hours post injection; 5 mice per group; no peptide 100
Procedure: To confirm this in vivo, endotoxic shock was induced by intraperitoneal injection of 10 μg of E.coli 0111:B4 LPS in phosphate-buffered saline (PBS; pH 7.2) into galactosamine-sensitized 8- to 10- week old female CD-1 mice (5 per group). In experiments involving peptides, 200 μg in 100 μl of sterile water was injected at separate intraperitoneal sites within 10 min of LPS injection. Survival was monitored at 24 hours post injection.

[6] = cationic peptide concentration, combined with lysozyme
[7] = lysozyme concentration, combined with the peptide

CC[C@H](C)[C@H](NC(=O)CNC(=O)[C@@H](NC(=O)[C@H](CCCCN)NC(=O)[C@H](CCCCN)NC(=O)[C@H](Cc1ccccc1)NC(=O)[C@H](CC(C)C)NC(=O)[C@@H](N)CCCCN)[C@@H](C)CC)C(=O)NCC(=O)N[C@@H](C)C(=O)N[C@H](C(=O)N[C@@H](CC(C)C)C(=O)N[C@@H](CCCCN)C(=O)N[C@H](C(=O)N[C@@H](CC(C)C)C(=O)N[C@@H](CCCCN)C(=O)N[C@H](C(=O)N[C@@H](CC(C)C)C(=O)N[C@H](C(=O)N[C@H](C(=O)NCC(=O)N[C@@H](CC(C)C)C(=O)N1CCC[C@H]1C(=O)N[C@@H](C)C(=O)N[C@@H](CC(C)C)C(=O)N[C@@H](CCCCN)C(=O)N[C@@H](CC(C)C)C(=O)N[C@H](C(=O)N[C@@H](CC(C)C)C(=O)N[C@@H](CCCCN)C(=O)O)[C@@H](C)O)[C@@H](C)O)[C@@H](C)O)C(C)C)C(C)C)C(C)C [CM5]
MIC S. aureus K147 (S. aureus K147): 64 µg/mL | MIC E. coli (E. coli [1]): 4 µg/mL | MIC S. epidermis (S. epidermis): 11 µg/mL | MIC P. aeruginosa (P. aeruginosa): 16 µg/mL | MIC S. aureus (S. aureus): >64 µg/mL | (B) MIC of Cipro when combined with peptide ([2]; ciprofloxacin with peptide at concentration (A), Nal B, H744): .125 µg/mL | FIC index ([2]; peptide + ciprofloxacin, Nal B, H744): .75 | MIC A MIC of Peptides ([2]; peptide alone, P. aeruginosa mutant Nal B, H744 (Table 5)): 4 µg/mL | (A) Peptide doses together with Cipro ([2]; peptide concentration in combination with ciprofloxacin, Nal B, H744): 1 µg/mL | (B) MIC of Carb when combined with peptide ([3]; Carbenicillin with peptide at concentration (A)): 16 µg/mL | FIC index ([3]; peptide + Carbenicillin, about 0.5 or less synergy, 1.0 additivity, >1.0 antagonism): 0.38 | MIC A MIC of Peptides ([3]; peptide alone): 32 µg/mL | (A) Peptide doses together with Carb ([3]; peptide concentration in combination with Carbenicillin): 4 µg/mL | FIC for combination of cationic peptide and lysozyme (Salmonella typhi): 0.56 | Lowest [CP] showing synergy (Salmonella typhi; [6]): 10.4 µg/mL | Lowest [Lyso] showing synergy (Salmonella typhi; [7]): 62.5 µg/mL | FIC for combination of cationic peptide and lysozyme (E. coli [4]): 0.27 | Lowest [CP] showing synergy (E. coli [4]; [6]): 1.3 µg/mL | Lowest [Lyso] showing synergy (E. coli [4]; [7]): 7.8 µg/mL | FIC for combination of cationic peptide and lysozyme (P. aeruginosa (H103)): 0.63 | Lowest [CP] showing synergy (P. aeruginosa (H103); [6]): 10.4 µg/mL | Lowest [Lyso] showing synergy (P. aeruginosa (H103); [7]): 125 µg/mL | Mortality (%) [5]: 80%
